Test results from ChEMBL document CHEMBL1146988, “The spermicidal and antitrichomonas activities of SSRI antidepressants” (2006).

Legend:
Trichomonas vaginalis = experiment: Antitrichomonas activity against Trichomonas vaginalis after 48 hrs; format: functional
Spermatozoa = experiment: Spermicidal activity against human spermatozoa; format: functional

SMILES | MLC (Trichomonas vaginalis) [%] | ED50 (Spermatozoa) [%] | MEC (Spermatozoa) [%] | MLC50 (Trichomonas vaginalis) [%]
Cl.Cl.Fc1ccc([C@@H]2CCNC[C@H]2COc2ccc3c(c2)OCO3)cc1.Fc1ccc([C@@H]2CCNC[C@H]2COc2ccc3c(c2)OCO3)cc1.O [PAROXETINE HYDROCHLORIDE] | >0.01 | 0.008 | 0.1 | –
CCCCCCCCCc1ccc(OCCOCCOCCOCCOCCOCCOCCOCCOCCO)cc1 [NONOXYNOL 9] | 0.002 | 0.01 | 0.05 | 0.0009
CN[C@H]1CC[C@@H](c2ccc(Cl)c(Cl)c2)c2ccccc21.Cl [SERTRALINE HYDROCHLORIDE] | 0.003 | – | 0.5 | 0.0012
CNCCC(Oc1ccc(C(F)(F)F)cc1)c1ccccc1.Cl (stereo unspecified) [FLUOXETINE HYDROCHLORIDE] | 0.003 | – | – | –
COCCCC/C(=N\OCCN)c1ccc(C(F)(F)F)cc1.O=C(O)/C=C\C(=O)O [FLUVOXAMINE MALEATE] | 0.005 | 0.005 | 0.1 | 0.003
Cl.NCCc1c[nH]c2ccc(O)cc12 [SEROTONIN HYDROCHLORIDE] | – | – | >1 | –
